# Data taken from US20170224654A1, “PHARMACEUTICAL COMPOSITIONS AND METHODS FOR COUNTERING CHEMOTHERAPY INDUCED CARDIOTOXICITY” (Stem Cell Theranostics, Inc., priority 2016, published 2017).
# Columns and labels:
# [1] = system: Human iPSC-derived cardiomyocytes; experiment: Mitochondrial toxicity imaging (TMRM) after doxorubicin, 2 days; type: cell-based; conditions: 1.25 μM doxorubicin + 79 μM myricetin vs 1.25 μM doxorubicin alone
# Experimental: Following treatment, the samples were incubated with a tetramethylrhodamine methyl ester (TMRM) dye to indicate mitochondrial health, and Hoechst 33342 to identify cell nuclei. Cells were imaged using the INCell Analyzer2200.
# [2] = system: Human iPSC-derived cardiomyocytes; experiment: DOX-induced contractility dysfunction (Pulse videos), 48 hours; type: cell-based
# [3] = system: Human iPSC-derived cardiomyocytes; experiment: DOX-induced DNA double strand break (γH2AX immunostaining); type: cell-based; conditions: DOX 0.5 μM plus 100 μM agent, 48 hours
# [4] = biological target: T1, TOPOIIβ (Homo sapiens, UniProt Q02880); experiment: kDNA decatenation assay; type: biochemical; conditions: 37° C., 30 min, n=3; read-out: IC50 of TOPOIIβ enzyme activity
# T1 construct: purchased Inspiralis
# [5] = system: topoisomerase IIβ protein in human iPSC-derived cardiomyocytes; experiment: TOPOIIβ protein level (immunostaining), 24 hours; type: cell-based; conditions: 100 μM
# Experimental: To further distinguish molecular mechanisms of MYR from those of DEX and also to determine whether the inhibitory effects of MYR on TOPOII observed in the decatenation assays above is due to degradation of TOPOII proteins, human iPSC-derived cardiomyocytes were treated with DMSO, DEX (100 μM), or MYR (100 μM) for 24 hours, and immunostained with antibody against topoisomerase IIβ (BD Biosciences).
# Cells were imaged using INCell Analyzer2200 (GE) and […] protein levels were quantified. Student T-Test (unpaired, two-tailed) was used to determine the significance of the difference.
# [6] = system: TOPOIIβ mRNA expression; experiment: mRNA expression level in cardiomyocytes; type: cell-based
# [7] = system: TOPOIIα mRNA expression; experiment: mRNA expression level in cardiomyocytes; type: cell-based
# [8] = system: sorafenib treated cardiomyocytes; experiment: Sorafenib-induced contractile dysfunction; type: cell-based, human; conditions: 5 μM sorafenib
# [9] = system: cardiomyocytes; experiment: Bortezomib-induced cell death; type: cell-based, human; conditions: 100 μM myricetin
# [10] = system: patient; experiment: Patient treatment examples (echocardiogram / electrocardiogram); type: in vivo, human; conditions: for QT prolongation (in words): doxorubicin (5 mg/mL) given with the protective agent
# Experimental: A patient, with a history of heart disease, is diagnosed with breast cancer. Due to an increased risk for heart failure, the patient is unable to receive the standard treatment regimen of doxorubicin, which is known to induce cardiotoxicity. Instead, the caregiver administers a co-formulation of doxorubicin (10 mg) and vitexin (100 mg). An echocardiogram is performed and blood flow rate is measured to determine if the therapy has a cardiotoxic effect in the patient.
# A patient is diagnosed with liver cancer. […] The patient presents with a 20 ms QT prolongation. […] The patient is able to continue receiving treatment over several weeks after which a tissue biopsy is performed to confirm the liver cancer has been eradicated.
# A patient is diagnosed with stage II lung cancer, and presents with bradycardia. Due to an increased risk for heart failure, the patient is unable to receive the standard treatment regimen of doxorubicin, which is known to affect cardiac contraction and induce bradycardia. Instead, the caregiver administers a co-formulation of doxorubicin (10 mg) and myricetin (100 mg). An electrocardiogram is used to monitor the patient's heart rate. […] The lung cancer is down-staged to stage 1, and the cancer is successfully removed with surgery.
# A patient is diagnosed with stage II lung cancer, and presents with bradycardia. Due to an increased risk for heart failure, the patient is unable to receive the standard treatment regimen of doxorubicin, which is known to affect cardiac contraction and induce bradycardia. Instead, the caregiver administers myricetin (100 mg) 24 hours before administration of doxorubicin (10 mg). An electrocardiogram is used to monitor the patient's heart rate. […] The lung cancer is down-staged to stage 1, and the cancer is successfully removed with surgery.
# [11] = system: human induced pluripotent stem cell-derived cardiomyocytes (iPSC-CM)
# [12] = biological target: T2, TOPOIIα (Homo sapiens, UniProt P11388); experiment: kDNA decatenation assay; type: biochemical; conditions: 37° C., 30 min, n=3; read-out: IC50 of TOPOIIα enzyme activity
# T2 construct: purchased Inspiralis
# [13] = system: MDA-MB-231 breast cancer cells; experiment: Cell viability with doxorubicin (CellTiter-Glo); type: cell-based; conditions: co-treated with increasing concentrations of doxorubicin, 72 hours
# [14] = system: human induced pluripotent stem cell-derived cardiomyocytes; experiment: Long-term mitochondrial health (TMRM), 7 days; type: cell-based; conditions: 1 μM doxorubicin alone or with dexrazoxane or vitexin
# Experimental: Following treatment, the samples were incubated with a tetramethylrhodamine methyl ester (TMRM) dye to indicate mitochondrial health. […] Representative images are presented for each sample, wherein loss of TMRM signal represents mitochondrial toxicity.
# [15] = system: A549 cells (lung cancer); experiment: Cell viability with doxorubicin (CellTiter-Glo); type: cell-based; conditions: co-treated with increasing concentrations of doxorubicin, 72 hours
# Experimental: A549 cells (lung cancer) were cultured for 1 day before performing experiments. […] XLFit was used for curve fitting.
# [16] = system: induced pluripotent stem cell-derived cardiomyocytes; experiment: Acute toxicity on electrophysiology (MEA beat period, field potential duration); type: cell-based; conditions: for beat period or field potential duration, as compared to control samples: lower drug concentration, at least 20 minutes
# Experimental: Samples were either mock-treated with 0.1% DMSO, or treated with increasing concentrations of the indicated drug for at least 20 minutes. Cardiomyocytes were treated with the hERG potassium channel blocker E4031 as a control. Following treatment, the beat period and field potential duration (FPD) were measured in each sample using the MEA.
# [17] = system: induced pluripotent stem cell-derived cardiomyocytes; experiment: Long term toxicity on electrophysiology (active electrodes, MEA); type: cell-based; conditions: for number of active electrodes relative to the mock-treated sample (in words): various concentrations, at least 5 days
# Experimental: Samples were either mock-treated with 0.1% DMSO, or treated with various concentrations of the indicated drug. Following treatment, the percentage of active electrodes in each sample was measured for at least 5 days. Percentage of active electrodes was quantified and graphed in a time course.
# [18] = in vitro; conditions: human
# [19] = system: C57BL/6 mice; experiment: Acute anthracycline-induced cardiotoxicity model, echocardiography; type: in vivo; conditions: Doxorubicin 20 mg/kg single intraperitoneal injection, day 5
# From the text: An acute anthracycline-induced cardiotoxicity model was established in 9-10 week old C57BL/6 mice obtained from The Jackson Laboratory. […] General health of the animals was monitored on a daily basis throughout the course of the study. […] Left ventricular (LV) M-mode images were obtained in the two-dimensional short axis view close to the papillary muscles. Tracings of endocardial tissue during systole and diastole were made off line.
# [20] = system: human induced pluripotent stem cell-derived cardiomyocytes; experiment: Electrophysiological activity with doxorubicin (active electrodes, MEA); type: cell-based; conditions: 1 μM doxorubicin, in the absence of vitexin
# Experimental: Samples were either mock-treated with 0.1% DMSO, treated with 1 μM doxorubicin, or co-treated with 1 μM doxorubicin and various concentrations of vitexin (e.g., 11.6 μM, 37 μM, or 116 μM). Following treatment, the percentage of active electrodes in each sample was measured for 72 hours. Percentage of active electrodes was quantified and graphed in a time course (FIG. 28A). The average number of active electrodes per well was quantified and graphed at 30 hours after the treatment (FIG. 28B, n=6, standard deviation is shown as error bars).
# [21] = agent alone, DOX at 24 and 48 hours
# T1 sequence (Q02880 whole entry): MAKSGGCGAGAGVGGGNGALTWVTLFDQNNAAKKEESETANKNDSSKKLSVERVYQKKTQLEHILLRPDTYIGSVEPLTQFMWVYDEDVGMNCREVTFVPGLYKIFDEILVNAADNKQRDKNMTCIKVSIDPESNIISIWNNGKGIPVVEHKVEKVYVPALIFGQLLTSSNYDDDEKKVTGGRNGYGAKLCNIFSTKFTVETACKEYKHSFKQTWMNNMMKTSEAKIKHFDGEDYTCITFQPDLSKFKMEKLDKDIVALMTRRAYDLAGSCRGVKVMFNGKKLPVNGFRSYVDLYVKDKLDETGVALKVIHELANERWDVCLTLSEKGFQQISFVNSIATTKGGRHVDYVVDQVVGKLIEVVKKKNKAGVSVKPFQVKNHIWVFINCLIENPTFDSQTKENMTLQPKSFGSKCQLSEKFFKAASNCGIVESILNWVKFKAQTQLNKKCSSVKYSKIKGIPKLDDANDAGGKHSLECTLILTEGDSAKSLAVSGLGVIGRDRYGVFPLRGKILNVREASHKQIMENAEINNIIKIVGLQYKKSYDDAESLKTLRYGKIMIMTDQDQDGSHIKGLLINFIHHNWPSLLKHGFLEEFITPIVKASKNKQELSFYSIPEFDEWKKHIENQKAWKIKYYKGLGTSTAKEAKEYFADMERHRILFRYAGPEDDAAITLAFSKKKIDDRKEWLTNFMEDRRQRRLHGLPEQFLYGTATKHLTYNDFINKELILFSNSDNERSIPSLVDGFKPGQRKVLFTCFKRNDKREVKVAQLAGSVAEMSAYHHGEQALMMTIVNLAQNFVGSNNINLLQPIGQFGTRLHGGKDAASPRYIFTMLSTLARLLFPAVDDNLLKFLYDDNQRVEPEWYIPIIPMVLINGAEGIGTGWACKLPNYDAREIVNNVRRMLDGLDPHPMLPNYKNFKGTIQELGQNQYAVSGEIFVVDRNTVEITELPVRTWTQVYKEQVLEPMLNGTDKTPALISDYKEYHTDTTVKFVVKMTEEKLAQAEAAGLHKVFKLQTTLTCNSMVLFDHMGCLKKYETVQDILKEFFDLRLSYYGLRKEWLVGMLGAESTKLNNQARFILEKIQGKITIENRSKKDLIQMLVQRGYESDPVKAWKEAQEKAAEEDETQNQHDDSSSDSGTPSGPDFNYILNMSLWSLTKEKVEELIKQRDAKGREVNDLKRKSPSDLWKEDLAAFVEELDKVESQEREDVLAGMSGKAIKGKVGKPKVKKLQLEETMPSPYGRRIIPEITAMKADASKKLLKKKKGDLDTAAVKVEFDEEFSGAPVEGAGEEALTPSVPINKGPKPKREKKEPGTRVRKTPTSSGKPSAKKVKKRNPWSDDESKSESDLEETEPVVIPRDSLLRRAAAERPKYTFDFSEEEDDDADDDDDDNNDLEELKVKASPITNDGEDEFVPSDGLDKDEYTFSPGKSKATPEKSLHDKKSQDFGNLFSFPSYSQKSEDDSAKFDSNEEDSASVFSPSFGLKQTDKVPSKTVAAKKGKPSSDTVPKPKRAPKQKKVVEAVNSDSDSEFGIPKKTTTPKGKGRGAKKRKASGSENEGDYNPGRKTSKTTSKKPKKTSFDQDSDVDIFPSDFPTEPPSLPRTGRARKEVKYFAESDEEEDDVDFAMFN
# T2 sequence (P11388 whole entry): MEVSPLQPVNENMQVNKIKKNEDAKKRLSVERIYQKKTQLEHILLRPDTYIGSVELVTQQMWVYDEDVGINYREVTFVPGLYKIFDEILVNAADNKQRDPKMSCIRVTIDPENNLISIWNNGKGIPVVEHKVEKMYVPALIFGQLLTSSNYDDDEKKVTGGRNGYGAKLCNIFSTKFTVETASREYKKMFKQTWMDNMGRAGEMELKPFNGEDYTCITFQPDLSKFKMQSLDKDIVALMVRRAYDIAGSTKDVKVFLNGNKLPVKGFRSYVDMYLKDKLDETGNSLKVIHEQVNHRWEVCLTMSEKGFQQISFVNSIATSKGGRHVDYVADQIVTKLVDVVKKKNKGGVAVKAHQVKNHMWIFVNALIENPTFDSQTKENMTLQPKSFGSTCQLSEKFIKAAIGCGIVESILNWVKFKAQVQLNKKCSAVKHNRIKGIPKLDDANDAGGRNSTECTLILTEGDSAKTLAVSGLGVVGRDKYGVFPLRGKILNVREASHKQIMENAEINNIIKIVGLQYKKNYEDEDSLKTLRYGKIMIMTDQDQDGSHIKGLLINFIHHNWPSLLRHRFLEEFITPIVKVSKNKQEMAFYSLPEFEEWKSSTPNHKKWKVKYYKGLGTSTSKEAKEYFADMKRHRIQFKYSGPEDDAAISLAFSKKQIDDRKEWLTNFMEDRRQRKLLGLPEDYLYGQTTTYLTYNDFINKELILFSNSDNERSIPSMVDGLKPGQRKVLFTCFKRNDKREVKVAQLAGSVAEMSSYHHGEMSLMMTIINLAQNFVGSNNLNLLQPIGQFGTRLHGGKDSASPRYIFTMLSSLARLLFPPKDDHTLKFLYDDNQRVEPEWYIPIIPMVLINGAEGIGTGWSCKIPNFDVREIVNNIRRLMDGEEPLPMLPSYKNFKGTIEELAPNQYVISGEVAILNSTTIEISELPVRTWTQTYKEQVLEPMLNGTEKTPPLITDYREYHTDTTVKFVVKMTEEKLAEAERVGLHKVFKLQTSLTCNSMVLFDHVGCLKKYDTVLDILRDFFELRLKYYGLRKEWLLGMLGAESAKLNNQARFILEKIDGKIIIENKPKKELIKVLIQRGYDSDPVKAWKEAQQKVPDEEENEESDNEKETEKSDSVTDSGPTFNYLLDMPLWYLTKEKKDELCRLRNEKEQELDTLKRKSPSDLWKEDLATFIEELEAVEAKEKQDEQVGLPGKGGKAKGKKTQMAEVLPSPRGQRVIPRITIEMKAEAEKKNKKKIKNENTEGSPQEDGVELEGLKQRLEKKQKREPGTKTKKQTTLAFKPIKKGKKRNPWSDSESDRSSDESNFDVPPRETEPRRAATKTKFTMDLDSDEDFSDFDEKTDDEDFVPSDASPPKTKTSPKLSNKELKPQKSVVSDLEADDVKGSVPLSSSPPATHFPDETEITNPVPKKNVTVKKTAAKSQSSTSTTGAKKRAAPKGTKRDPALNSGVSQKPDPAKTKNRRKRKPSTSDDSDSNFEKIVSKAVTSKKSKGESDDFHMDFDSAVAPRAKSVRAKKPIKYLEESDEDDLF
compound,measurement,setting,value
"O=c1c(O)c(-c2cc(O)c(O)c(O)c2)oc2cc(O)cc(O)c12 [Compound 1, 3,5,7,3′,4′,5′-hexahydroxyflavone]",TMRM signal (protection against doxorubicin-induced mitochondrial toxicity),[1],greater TMRM signal
same,"correction of DOX-induced contractile dysfunction (beating, duration, peak height)","[2]; DOX 0.5 μM plus MYR 100 μM, compared to DEX 100 μM",significantly corrected
same,protection against DOX-induced DNA double strand break (γH2AX-positive cells),[3],significant protection
same,IC50,[4],2.07 µM
same,topoisomerase IIβ protein levels,[5],no effect
same,TOPOIIβ mRNA expression,[6]; DOX plus myricetin,restored to a level close to normal
same,TOPOIIβ mRNA expression,[6]; [21],did not have any effect
same,TOPOIIα mRNA expression,[7]; DOX plus myricetin,further repressed
same,correction of cardiac dysfunction,[8],more than 80%
same,rescue of bortezomib-induced cardiotoxicity,[9],rescued bortezomib-induced cardiotoxicity
same,QT prolongation (in words),[10],no signs of QT prolongation
same,cardiac dysfunction in the patient,"[10]; protective agent 100 mg co-formulated with, or 24 hours before, doxorubicin 10 mg",no indication of cardiac dysfunction
same,"number of total cells, as compared to mock-treated control",[11],no significant difference
C[C@@H](CN1CC(=O)NC(=O)C1)N1CC(=O)NC(=O)C1 [dexrazoxane],IC50,[12],52.7 µM
same,IC50,[4],34.4 µM
same,topoisomerase IIβ protein levels,[5],marked disappearance of TOPOIIβ
same,percentage of cell death vs doxorubicin in the absence of a protective agent,[13],no significant difference
same,mitochondrial toxicity / protection (TMRM-positive cells),[14],increase in mitochondrial toxicity
same,percentage of cell death vs doxorubicin in the absence of a protective agent,[15],no significant difference
same,"beat period or field potential duration, as compared to control samples",[16],no appreciable difference
same,reduction in the number of active electrodes,"[17]; 500 dexrazoxane, about 2 days post-treatment",~50%
COc1cccc2c1C(=O)c1c(O)c3c(c(O)c1C2=O)C[C@@](O)(C(=O)CO)C[C@@H]3O[C@H]1C[C@H](N)[C@@H](O)[C@H](C)O1 [epirubicin],CC50 at 72 h,[18],490 nM
Nc1c(Br)cc(Br)cc1CN[C@H]1CC[C@H](O)CC1 [ambroxol],percentage of cell death vs doxorubicin in the absence of a protective agent,[13],no significant difference
same,percentage of cell death vs doxorubicin in the absence of a protective agent,[15],no significant difference
same,"beat period or field potential duration, as compared to control samples",[16],no appreciable difference
same,number of active electrodes relative to the mock-treated sample (in words),[17],no observable decrease
CC(=O)N(O)CCCCCNC(=O)CCC(=O)N(O)CCCCCNC(=O)CCC(=O)N(O)CCCCCN [deferoxamine],"beat period or field potential duration, as compared to control samples",[16],no appreciable difference
"COc1cccc2c1C(=O)c1c(O)c3c(c(O)c1C2=O)C[C@@](O)(C(=O)CO)C[C@@H]3O[C@H]1C[C@H](N)[C@H](O)[C@H](C)O1 [doxorubicin, reference compound]",cardiomyocyte contraction,[2]; DOX 0.5 μM,induced dysfunction in cardiomyocyte contraction
same,TOPOIIβ mRNA expression,[6]; [21],significantly repressed
same,TOPOIIα mRNA expression,"[7]; DOX alone, over time",slowly repressed
same,decrease of ejection fraction (EF),[19],19%
same,decrease of fractional shortening (FS),[19],15%
same,mitochondrial toxicity / protection (TMRM-positive cells),[14],increase in mitochondrial toxicity
same,decrease in the number of active electrodes,[20]; 24 hours,~50%
same,"decrease in the number of active electrodes, relative to time zero",[20]; 30 hours,~95%
same,CC50 at 72 h,[18],410 nM
C[C@@H]1O[C@@H](Oc2c(-c3cc(O)c(O)c(O)c3)oc3cc(O)cc(O)c3c2=O)[C@H](O)[C@H](O)[C@H]1O [myricitrin],QT prolongation (in words),[10],no signs of QT prolongation
Nc1ccc(O)c(C(=O)O)c1 [mesalamine],percentage of cell death vs doxorubicin in the absence of a protective agent,[13],no significant difference
same,percentage of cell death vs doxorubicin in the absence of a protective agent,[15],no significant difference
same,number of active electrodes relative to the mock-treated sample (in words),[17],no observable decrease
CC(=O)N[C@@H](CS)C(=O)O [N-acetyl cysteine],percentage of cell death vs doxorubicin in the absence of a protective agent,[13],no significant difference
same,percentage of cell death vs doxorubicin in the absence of a protective agent,[15],no significant difference
same,"beat period or field potential duration, as compared to control samples",[16],no appreciable difference
O=C1C[C@@H](c2ccc(O)cc2)Oc2cc(O)cc(O)c21 [naringenin],acute drug toxicity (beating),[16]; higher concentrations,beating cessation
same,"beat period or field potential duration, as compared to control samples",[16],no appreciable difference
"CC(=O)[C@]1(O)Cc2c(O)c3c(c(O)c2[C@@H](O[C@H]2C[C@H](N)[C@H](O)[C@H](C)O2)C1)C(=O)c1ccccc1C3=O [Idarubicin, idarubicin]",CC50 at 72 h,[18],590 nM
